From article PMC11684029, “Discovery of VU6024578/BI02982816: An mGlu1 Positive Allosteric Modulator with Efficacy in Preclinical Antipsychotic and Cognition Models” (Journal of Medicinal Chemistry, 2024)
Where two headings read alike, the source gives them in different places.

Assays:
3A4 = 3A4 (Homo sapiens, UniProt P08684); assay: 3A4 mechanism-based inhibition; assay type: in vitro ADME
satellite PK for rat AHL = assay type: in vivo; conditions: 2.5-h end of study; for concentration at 2.5 h: brain, oral, read-out: free brain concentration
Procedure: Here, administration of 0.75 mg/kg IP of amphetamine induced a robust hyperlocomotive state in rats (>1200 beam breaks), which was dose-dependently reversed by oral administration of 19d. […] Considering the longer time point for exposure and the results, mGlu1 has sufficient target coverage and PK/PD is established for this paradigm.[24]

Wistar rats = assay: qEEG telemetry recordings; assay type: in vivo; conditions: rat
Procedure: These effects were most pronounced between 30 and 120 min post treatment (Figure 11C).
Data are expressed as mean ± SEM and were analyzed by one- and two-way ANOVA followed by Dunnett’s Multiple Comparisons tests (*p < 0.05, **p < 0.01, ***p < 0.001 versus vehicle).
Wistar rats using a telemetry system (Data Sciences International DSI, USA).[20] Telemetric transmitters (F40-EET, Data Sciences International DSI, USA) were implanted intraperitoneally into male Wistar rats. EEG electrodes were placed supradurally above the hippocampus and two more electrodes were implanted into the neck muscle in order to measure the electromyography (EMG) signal required for differentiation between different vigilance states. Telemetric EEG recordings were performed during the light phase in the rats’ home cage environment. EEG activity was sampled at 500 Hz with a hardware filter cutoff of 50 Hz. Data were recorded continuously for 24 h, but only 1 h before compound treatment (baseline), the first 4 h after compound treatment plus an additional hour (+24 h time point) have been analyzed. Effects of treatment with 19d (1, 10 mg/kg, p.o., n = 14, applied 2 h after starting the recording) were determined on motor activity, body temperature, vigilance states and EEG power spectra using the EEG analysis software NeuroScore (Data Sciences International DSI, USA). The rats were tested in a crossover study design with a two-day washout period between two treatments.[20]

5-HT1B = target: T1, 5-HT1B (Homo sapiens, UniProt P28222); assay: Eurofins radioligand binding panel; conditions: antagonist radioligand
T1 construct: Eurofins
Text: (§1) Table S1. Eurofins Lead Profiling Screen Data
(§2) This is a radioligand binding panel of 80 targets including GPCRs, ion channels, transporters and nuclear hormones. Biochemical assay results are presented as the percent inhibition of specific […]
(§3) Results showing an inhibition or stimulation higher than 50% are considered to represent significant effect and are highlighted

5-HT2C = target: T2, 5-HT2C (Homo sapiens, UniProt P28335); assay: Eurofins radioligand binding panel; conditions: antagonist radioligand
T2 construct: Eurofins
Text: as §1, §2, §3

5-HT6 = target: T3, 5-HT6 (Homo sapiens, UniProt P50406); assay: Eurofins radioligand binding panel; conditions: agonist radioligand
T3 construct: Eurofins
Text: as §1, §2, §3

CCR1 = target: T4, CCR1 (Homo sapiens, UniProt P32246); assay: Eurofins radioligand binding panel; conditions: agonist radioligand
T4 construct: Eurofins (panel run as a service)
Text: as §1, §2, §3

Cl- channel (GABA-gated) = assay: Eurofins radioligand binding panel; conditions: antagonist radioligand
Text: as §1, §2, §3

D2S = target: T5, D2S (Homo sapiens, UniProt P14416); assay: Eurofins radioligand binding panel; conditions: antagonist radioligand
T5 construct: Eurofins (panel run as a service)
Text: as §1, §2, §3

D4.4 = target: T6, D4.4 (Homo sapiens, UniProt P21917); assay: Eurofins radioligand binding panel; conditions: antagonist radioligand
T6 construct: Eurofins (panel run as a service)
Text: as §1, §2, §3

GAL1 = target: T7, GAL1 (Homo sapiens, UniProt P47211); assay: Eurofins radioligand binding panel; conditions: agonist radioligand
T7 construct: Eurofins (panel run as a service)
Text: as §1, §2, §3

H2 = target: T8, H2 (Homo sapiens, UniProt P25021); assay: Eurofins radioligand binding panel; conditions: antagonist radioligand
T8 construct: Eurofins (panel run as a service)
Text: as §1, §2, §3

IP (PGI2) = target: T9, IP (PGI2) (Homo sapiens, UniProt P43119); assay: Eurofins radioligand binding panel; conditions: agonist radioligand
T9 construct: Eurofins
Text: as §1, §2, §3

M3 = target: T10, M3 (Homo sapiens, UniProt P20309); assay: Eurofins radioligand binding panel; conditions: antagonist radioligand
T10 construct: Eurofins
Text: as §1, §2, §3

MT1 (ML1A) = target: T11, MT1 (ML1A) (Homo sapiens, UniProt P48039); assay: Eurofins radioligand binding panel; conditions: agonist radioligand
T11 construct: Eurofins
Text: as §1, §2, §3

NK1 = target: T12, NK1 (Homo sapiens, UniProt P25103); assay: Eurofins radioligand binding panel; conditions: agonist radioligand
T12 construct: Eurofins
Text: as §1, §2, §3

NK3 = target: T13, NK3 (Homo sapiens, UniProt P29371); assay: Eurofins radioligand binding panel; conditions: antagonist radioligand
T13 construct: Eurofins
Text: as §1, §2, §3

NOP (ORL1) = target: T14, NOP (ORL1) (Homo sapiens, UniProt P41146); assay: Eurofins radioligand binding panel; conditions: agonist radioligand
T14 construct: Eurofins
Text: as §1, §2, §3

V1a = target: T15, V1a (Homo sapiens, UniProt P37288); assay: Eurofins radioligand binding panel; conditions: agonist radioligand
T15 construct: Eurofins
Text: as §1, §2, §3

VPAC1 (VIP1) = target: T16, VPAC1 (VIP1) (Homo sapiens, UniProt P32241); assay: Eurofins radioligand binding panel; conditions: agonist radioligand
T16 construct: Eurofins
Text: as §1, §2, §3

[1] = tested on: Ca2+ channel (L, verapamil site) (phenylalkylamine); assay: Eurofins radioligand binding panel; set-up: species or system rat; conditions: antagonist radioligand
Text: as §1, §2, §3

GABA (non-selective) = assay: Eurofins radioligand binding panel; set-up: species or system rat; conditions: agonist radioligand
Text: as §1, §2, §3

KV channel = assay: Eurofins radioligand binding panel; set-up: species or system rat; conditions: antagonist radioligand
Text: as §1, §2, §3

P2Y = assay: Eurofins radioligand binding panel; set-up: species or system rat; conditions: agonist radioligand
Text: as §1, §2, §3

PCP = assay: Eurofins radioligand binding panel; set-up: species or system rat; conditions: antagonist radioligand
Text: as §1, §2, §3

SKCa channel = assay: Eurofins radioligand binding panel; set-up: species or system rat; conditions: antagonist radioligand
Text: as §1, §2, §3

T16 sequence (P32241 31-457): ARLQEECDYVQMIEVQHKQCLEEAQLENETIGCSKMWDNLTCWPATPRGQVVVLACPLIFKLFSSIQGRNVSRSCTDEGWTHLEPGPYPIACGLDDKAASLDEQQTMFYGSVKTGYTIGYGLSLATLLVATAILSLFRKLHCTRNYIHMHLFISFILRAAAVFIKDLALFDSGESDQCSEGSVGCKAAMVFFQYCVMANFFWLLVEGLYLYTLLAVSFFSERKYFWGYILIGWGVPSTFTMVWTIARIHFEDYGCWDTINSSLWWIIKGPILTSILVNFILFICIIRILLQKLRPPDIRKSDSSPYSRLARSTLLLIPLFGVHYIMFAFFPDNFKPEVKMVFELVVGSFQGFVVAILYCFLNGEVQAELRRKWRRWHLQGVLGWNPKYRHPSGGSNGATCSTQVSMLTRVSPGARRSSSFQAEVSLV
T4 sequence (P32246 whole entry): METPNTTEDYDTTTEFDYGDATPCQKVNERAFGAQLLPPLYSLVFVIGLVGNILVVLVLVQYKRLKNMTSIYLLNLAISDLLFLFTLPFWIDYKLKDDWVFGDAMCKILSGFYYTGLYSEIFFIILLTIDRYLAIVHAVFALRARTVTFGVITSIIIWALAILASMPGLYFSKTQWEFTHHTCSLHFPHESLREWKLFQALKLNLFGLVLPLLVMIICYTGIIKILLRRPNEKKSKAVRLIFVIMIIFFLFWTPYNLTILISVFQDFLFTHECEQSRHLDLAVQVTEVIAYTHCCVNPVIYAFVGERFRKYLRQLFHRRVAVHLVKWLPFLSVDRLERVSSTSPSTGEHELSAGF
T9 sequence (P43119 whole entry): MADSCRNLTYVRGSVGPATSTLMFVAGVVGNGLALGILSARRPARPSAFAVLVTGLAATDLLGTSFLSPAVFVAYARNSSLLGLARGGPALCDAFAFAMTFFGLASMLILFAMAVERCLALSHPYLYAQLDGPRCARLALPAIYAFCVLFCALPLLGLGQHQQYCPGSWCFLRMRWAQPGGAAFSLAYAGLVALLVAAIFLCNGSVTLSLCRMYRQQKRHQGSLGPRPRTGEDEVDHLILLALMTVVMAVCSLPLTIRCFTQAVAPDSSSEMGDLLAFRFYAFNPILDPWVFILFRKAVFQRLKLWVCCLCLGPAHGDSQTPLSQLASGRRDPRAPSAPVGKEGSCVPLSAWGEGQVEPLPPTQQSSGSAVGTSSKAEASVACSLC
T6 sequence (P21917 whole entry): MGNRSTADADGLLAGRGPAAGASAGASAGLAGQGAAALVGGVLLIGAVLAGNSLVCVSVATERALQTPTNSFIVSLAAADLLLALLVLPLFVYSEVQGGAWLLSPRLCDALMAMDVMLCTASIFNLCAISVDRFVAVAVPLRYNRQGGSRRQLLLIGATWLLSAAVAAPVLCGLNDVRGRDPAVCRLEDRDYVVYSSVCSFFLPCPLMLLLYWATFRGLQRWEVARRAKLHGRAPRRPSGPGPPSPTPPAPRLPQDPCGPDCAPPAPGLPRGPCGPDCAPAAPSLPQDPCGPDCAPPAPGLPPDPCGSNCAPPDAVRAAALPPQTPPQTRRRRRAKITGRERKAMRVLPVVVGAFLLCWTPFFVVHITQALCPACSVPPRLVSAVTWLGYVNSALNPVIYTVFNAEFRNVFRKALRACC
T3 sequence (P50406 whole entry): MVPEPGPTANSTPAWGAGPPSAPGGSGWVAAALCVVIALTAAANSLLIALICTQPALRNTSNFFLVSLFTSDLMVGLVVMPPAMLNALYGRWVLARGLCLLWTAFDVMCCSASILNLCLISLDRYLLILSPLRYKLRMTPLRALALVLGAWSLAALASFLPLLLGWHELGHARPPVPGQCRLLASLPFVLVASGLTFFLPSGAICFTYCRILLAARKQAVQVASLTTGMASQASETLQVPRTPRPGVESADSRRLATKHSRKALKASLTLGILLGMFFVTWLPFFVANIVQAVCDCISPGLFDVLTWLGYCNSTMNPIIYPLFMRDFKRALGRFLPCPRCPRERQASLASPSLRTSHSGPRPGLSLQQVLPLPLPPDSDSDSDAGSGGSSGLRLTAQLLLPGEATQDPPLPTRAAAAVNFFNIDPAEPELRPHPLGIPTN
T2 sequence (P28335 33-458): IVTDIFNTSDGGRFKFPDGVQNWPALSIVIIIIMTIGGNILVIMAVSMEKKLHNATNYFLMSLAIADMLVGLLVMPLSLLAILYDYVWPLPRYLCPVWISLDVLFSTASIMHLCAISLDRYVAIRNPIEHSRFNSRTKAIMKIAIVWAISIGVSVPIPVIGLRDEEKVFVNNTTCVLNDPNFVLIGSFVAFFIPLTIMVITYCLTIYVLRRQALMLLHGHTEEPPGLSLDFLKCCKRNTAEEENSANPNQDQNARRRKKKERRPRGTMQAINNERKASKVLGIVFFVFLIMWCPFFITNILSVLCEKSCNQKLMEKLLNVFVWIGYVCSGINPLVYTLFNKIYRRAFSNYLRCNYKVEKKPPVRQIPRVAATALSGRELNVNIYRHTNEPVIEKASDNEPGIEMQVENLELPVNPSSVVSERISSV
T1 sequence (P28222 whole entry): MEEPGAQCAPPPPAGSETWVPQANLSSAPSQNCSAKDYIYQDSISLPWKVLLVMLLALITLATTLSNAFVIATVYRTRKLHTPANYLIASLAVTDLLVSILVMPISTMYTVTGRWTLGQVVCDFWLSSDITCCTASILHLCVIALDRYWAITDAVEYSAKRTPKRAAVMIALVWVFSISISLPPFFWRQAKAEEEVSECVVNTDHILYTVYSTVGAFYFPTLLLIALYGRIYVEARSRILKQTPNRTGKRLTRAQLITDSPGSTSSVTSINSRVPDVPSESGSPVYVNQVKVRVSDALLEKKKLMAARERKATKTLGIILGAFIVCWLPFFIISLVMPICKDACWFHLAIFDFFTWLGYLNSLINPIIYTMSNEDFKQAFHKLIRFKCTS
T12 sequence (P25103 whole entry): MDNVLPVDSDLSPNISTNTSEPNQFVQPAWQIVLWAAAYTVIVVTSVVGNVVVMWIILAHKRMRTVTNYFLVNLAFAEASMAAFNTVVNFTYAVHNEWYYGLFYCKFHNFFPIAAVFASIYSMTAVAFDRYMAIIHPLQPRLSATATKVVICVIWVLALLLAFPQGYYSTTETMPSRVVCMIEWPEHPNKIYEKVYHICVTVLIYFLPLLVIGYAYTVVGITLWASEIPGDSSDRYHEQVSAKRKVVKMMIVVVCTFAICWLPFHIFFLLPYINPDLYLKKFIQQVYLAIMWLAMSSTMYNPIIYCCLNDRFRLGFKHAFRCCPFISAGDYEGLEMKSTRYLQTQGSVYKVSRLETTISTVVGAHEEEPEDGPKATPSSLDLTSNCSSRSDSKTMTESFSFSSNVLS
T7 sequence (P47211 whole entry): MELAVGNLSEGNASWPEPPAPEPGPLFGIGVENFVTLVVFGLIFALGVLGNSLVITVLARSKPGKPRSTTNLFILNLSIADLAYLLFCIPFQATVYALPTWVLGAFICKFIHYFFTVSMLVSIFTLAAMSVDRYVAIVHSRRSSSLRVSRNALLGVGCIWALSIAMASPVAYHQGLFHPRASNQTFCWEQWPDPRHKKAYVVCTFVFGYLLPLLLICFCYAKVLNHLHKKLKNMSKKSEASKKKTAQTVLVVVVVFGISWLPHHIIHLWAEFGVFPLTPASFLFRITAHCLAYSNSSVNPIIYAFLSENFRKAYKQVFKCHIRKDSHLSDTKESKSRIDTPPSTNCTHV
T14 sequence (P41146 whole entry): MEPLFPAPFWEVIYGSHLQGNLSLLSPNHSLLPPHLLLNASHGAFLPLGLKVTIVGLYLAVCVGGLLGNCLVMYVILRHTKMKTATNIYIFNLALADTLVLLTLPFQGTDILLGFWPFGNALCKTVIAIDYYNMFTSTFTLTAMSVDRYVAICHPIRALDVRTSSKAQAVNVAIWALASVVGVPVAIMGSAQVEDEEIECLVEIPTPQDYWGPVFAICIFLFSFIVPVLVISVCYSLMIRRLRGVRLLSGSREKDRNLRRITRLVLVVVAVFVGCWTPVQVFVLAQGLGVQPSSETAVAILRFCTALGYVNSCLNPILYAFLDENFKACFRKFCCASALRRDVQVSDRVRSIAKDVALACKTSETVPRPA
T8 sequence (P25021 whole entry): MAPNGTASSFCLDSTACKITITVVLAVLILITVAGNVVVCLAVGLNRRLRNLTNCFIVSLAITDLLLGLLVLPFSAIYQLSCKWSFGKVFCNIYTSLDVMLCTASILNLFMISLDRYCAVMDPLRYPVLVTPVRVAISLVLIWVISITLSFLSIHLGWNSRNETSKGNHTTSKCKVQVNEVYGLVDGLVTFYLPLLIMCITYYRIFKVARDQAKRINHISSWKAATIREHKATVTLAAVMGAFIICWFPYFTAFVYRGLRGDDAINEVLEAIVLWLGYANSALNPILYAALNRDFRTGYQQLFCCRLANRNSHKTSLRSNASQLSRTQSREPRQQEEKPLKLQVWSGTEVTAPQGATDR
3A4, sequence (P08684 whole entry): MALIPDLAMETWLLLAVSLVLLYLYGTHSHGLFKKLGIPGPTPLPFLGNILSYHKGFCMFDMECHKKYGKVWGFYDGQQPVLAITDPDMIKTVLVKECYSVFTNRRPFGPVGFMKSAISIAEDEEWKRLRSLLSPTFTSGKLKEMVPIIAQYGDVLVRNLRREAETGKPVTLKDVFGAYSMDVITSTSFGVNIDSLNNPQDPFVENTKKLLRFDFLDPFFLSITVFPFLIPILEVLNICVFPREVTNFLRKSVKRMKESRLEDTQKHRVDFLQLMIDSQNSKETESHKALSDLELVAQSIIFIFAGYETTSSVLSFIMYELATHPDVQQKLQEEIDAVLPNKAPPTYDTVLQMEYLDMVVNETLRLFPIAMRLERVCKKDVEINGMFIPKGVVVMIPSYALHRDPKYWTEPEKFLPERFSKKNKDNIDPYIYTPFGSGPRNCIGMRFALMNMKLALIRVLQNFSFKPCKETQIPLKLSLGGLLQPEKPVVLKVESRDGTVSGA

## Cn1nc(-c2ccnn2C)cc1CNC(=O)c1cc(-c2ccco2)ccc1Cl [Compound 19d, 2-Chloro-N-((1,2′-dimethyl-1H,2’H-[3,3′-bipyrazol]-5-yl)methyl)-5-(furan-2-yl)benzamide]
3A4
  3A4 mechanism-based inhibition: no 3A4 mechanism-based inhibition
Satellite PK for rat AHL; 3 mg/kg
  free brain concentration over in vitro EC50: ~0.6 fold
  concentration at 2.5 h: 0.032 µM
Satellite PK for rat AHL; 10 mg/kg
  free brain concentration over in vitro EC50: ~1.2 fold
  concentration at 2.5 h: 0.067 µM
Wistar rats; 10 mg/kg p.o.
  body temperature: no measurable changes
Wistar rats; 10 mg/kg p.o., 60 to 240 min post treatment
  EEG power spectra: consistent reduction of delta, alpha and beta power
Wistar rats; 10 mg/kg p.o., maximum within first 120 min
  motor activity: significantly increased
Wistar rats; higher dose (10 mg/kg p.o.)
  time spent in NREM and REM sleep: reduction
  time spent in active and quiet wake states: significant increase
5-HT1B
  inhibition at 10 µM: 11%
5-HT2C
  inhibition at 10 µM: 3%
5-HT6
  inhibition at 10 µM: -7%
CCR1
  inhibition at 10 µM: -1%
Cl- channel (GABA-gated)
  % Inhibition at 10 µM: 9%
D2S
  inhibition at 10 µM: 6%
D4.4
  inhibition at 10 µM: 22%
GAL1
  inhibition at 10 µM: -4%
H2
  inhibition at 10 µM: -31%
IP (PGI2)
  inhibition at 10 µM: -7%
M3
  inhibition at 10 µM: 2%
MT1 (ML1A)
  inhibition at 10 µM: 17%
NK1
  inhibition at 10 µM: 46%
NK3
  inhibition at 10 µM: -8%
NOP (ORL1)
  inhibition at 10 µM: -1%
V1a
  inhibition at 10 µM: 9%
VPAC1 (VIP1)
  inhibition at 10 µM: -4%
[1]
  % Inhibition at 10 µM: -16%
GABA (non-selective)
  % Inhibition at 10 µM: -3%
KV channel
  % Inhibition at 10 µM: 8%
P2Y
  % Inhibition at 10 µM: 23%
PCP
  % Inhibition at 10 µM: 2%
SKCa channel
  % Inhibition at 10 µM: 2%
